Read-outs that look alike come from different tables or passages of the source. Starred links: 1 amine or outer side, 2 acyl side, 3 side chain; linkers in the order of their positions; H or OH if unused. Residues, ends and D or L forms follow the SMILES beside them. *: point of attachment. pNA = O=[N+]([O-])c1ccc(N*)cc1; Suc = O=C(CCC(=O)[*:2])[*:1]; MeOSuc = COC(=O)CCC(=O)*; Cbz = O=C(OCc1ccccc1)*; Boc = CC(C)(C)OC(=O)*
Columns and labels:
[1] = target: T1, amyloidin (Homo sapiens, UniProt P52888); test: Cleavage of short peptide para-nitroanilide substrates by amyloidin (A405); format: biochemical; conditions: pH 7.5; up to 2 hours
T1 construct: from tissue; a purification from blood is also described
T1 sequence (P52888 whole entry): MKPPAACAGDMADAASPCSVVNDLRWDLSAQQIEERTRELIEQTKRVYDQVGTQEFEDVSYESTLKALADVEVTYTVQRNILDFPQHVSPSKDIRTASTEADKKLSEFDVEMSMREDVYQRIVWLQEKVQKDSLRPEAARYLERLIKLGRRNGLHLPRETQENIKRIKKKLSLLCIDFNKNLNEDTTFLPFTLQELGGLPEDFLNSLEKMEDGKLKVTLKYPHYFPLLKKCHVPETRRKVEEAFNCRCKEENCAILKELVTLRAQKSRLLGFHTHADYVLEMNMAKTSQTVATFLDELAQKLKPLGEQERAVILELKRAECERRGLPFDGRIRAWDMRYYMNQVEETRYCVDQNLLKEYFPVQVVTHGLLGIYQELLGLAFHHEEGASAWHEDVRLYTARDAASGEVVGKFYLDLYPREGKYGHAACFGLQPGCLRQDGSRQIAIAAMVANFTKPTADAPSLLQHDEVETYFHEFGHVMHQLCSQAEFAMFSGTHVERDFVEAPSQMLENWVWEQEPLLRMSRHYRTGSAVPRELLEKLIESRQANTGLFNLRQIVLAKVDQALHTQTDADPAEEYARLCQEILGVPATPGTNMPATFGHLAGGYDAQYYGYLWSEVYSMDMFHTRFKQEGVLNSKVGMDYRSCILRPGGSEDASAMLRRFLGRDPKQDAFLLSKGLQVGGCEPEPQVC

[2] = target: T1, amyloidin; test: Inhibition of amyloidin by various inhibitors (APP592-601 peptide cleavage); format: biochemical
[3] = target: T1, amyloidin; test: Cleavage of APP592-601 and its analogs by amyloidin (subsite requirements); format: biochemical; conditions: pH 7.5, CaCl2, 37° C., 60 min; RP-HPLC
Experimental: Routinely, 25 ul of enzyme solution were mixed with 10 ul of 1M Tris, pH 7.5, 5 ul 10 mM CaCl2, and 10 ul of a 2 mg/ml Stock solution of APP592-601 in water, or 20 mM Tris, pH 7.5, 0.15M NaCl, in 1.5 ml polypropylene microfuge tubes. The reaction mixtures were incubated for 60 min at 37° C. in a water bath, then quenched with 450 ul ice-cold ethanol, and incubated on ice for a further 20 min. They were centrifuged at 15,000×g for 10 min, and the supernatants transferred to new polypropylene tubes and dried under vacuum. The residue was dissolved in 0.5 ml water, centrifuged at 15,000×g for 5 min, and 200 ul of the supernatant injected onto a 0.46×30 cm Vydac C18 column equilibrated with 0.1% trifluoroacetic acid in water, at 1 ml/min. The column was immediately eluted with a linear gradient to 40% acetronitrile in 0.1% trifluoroacetic acid in water, over 20 minutes. The elution was monitored at 220 nm, and peaks were individually collected, hydrolyzed in 6N HCl at […] for 2 hr, then subjected to quantitative amino-acid analysis in an Applied Biosystems amino-acid analyzer. Once identified, times of elution were used to identify cleavage patterns.
In order to test the subsite requirements of amyloidin in the APP592-601 cleavage assay, analogs of this peptide substrate were synthesized.
Following synthesis and purification, the peptides were then incubated with amyloidin under conditions identical to those developed with APP592-601. The underlined residues designated changes from the native peptide sequence while the arrows indicate peptide cleavage sites. [drawing 5]

[4] = tested on: brain protease; conditions: TLC; 125I-labelled peptide; Abraham et al; cited from earlier work
[5] = target: human amyloidin protease (human)
[6] = target: APP592-601 (N-acetyl-Ser-Glu-Val-Lys-Met-Asp-Ala-Glu-Phe-Arg)
[7] = target: Z-RR-pNA
[8] = target: Z-RK-pNA
[9] = target: Suc-AAPF-pNA
[10] = target: MeS-AAPV-pNA
[11] = target: Z-AA-pNA
[12] = target: Ac-AD-pNA
[13] = target: Suc-AAPM-pNA
[14] = target: Boc-AAd-Pna
[15] = target: Ac-EVKM-PNA
[16] = target: T1, amyloidin; test: Cleavage of full-length APP from baculovirus cells by amyloidin; format: biochemical; conditions: certain preliminary conditions
[17] = target: soybean trypsin inhibitor (Sigma Chemicals) immobilized on CH-Sepharose; test: affinity column of immobilized soybean trypsin inhibitor; activity measured in the flow-through

Molecule: C[C@H](NC(=O)CCC(=O)O)C(=O)N[C@@H](C)C(=O)N1CCC[C@H]1C(=O)N[C@@H](Cc1ccccc1)C(=O)Nc1ccc([N+](=O)[O-])cc1 [Suc-AAPF-pNA, Succinylalanyl-alanyl-prolyl-phenylalanyl-] (Suc-AAPF-pNA)
- cleavage of p-NA substrate by amyloidin (increase in A405) [1]: 0

Molecule: α1-PI: general plasma serine proteinase inhibitor
- % Control Activity ([2]; assay conc. 30 ug/ml, 30 min pre-incubation, room temperature): 98%
- inhibitory effect on amyloidin ([2]; in words): Neither α-1-proteinase inhibitor or α-1-antichymotrypsin, two general plasma serine proteinase inhibitors, had any inhibitory effect

Molecule: Butyloxycarbonylalanyl-alanyl-aspartyl- (Boc-Ala-Ala-Asp-pNA; SMILES C[C@H](NC(=O)OC(C)(C)C)C(=O)N[C@@H](C)C(=O)N[C@@H](CC(=O)O)C(=O)Nc1ccc([N+](=O)[O-])cc1) [Boc-AAd-Pna]
- cleavage of p-NA substrate by amyloidin (increase in A405) [1]: 0

Molecule: c1cnc2c(c1)ccc1cccnc12 [1,10-phen., 1,10phenanthroline]
- remaining activity at 100 µM ([2]; assay conc. 0.1 mM, stock in DMSO, 30 min pre-incubation, room temperature, read-out: % Control Activity): 75%
- inhibitory effect on amyloidin ([2]; in words): only weakly inhibitory

Molecule: O=C(O)CN(CCN(CC(=O)O)CC(=O)O)CC(=O)O [EDTA, ethylenediaminetetraacetic acid]
- cleavage of APP592-601 by amyloidin [2]: no detectable cleavage
- inhibitory effect on amyloidin [2]: strongly inhibited

Molecule: C[C@H](NC(=O)OCc1ccccc1)C(=O)N[C@@H](C)C(=O)Nc1ccc([N+](=O)[O-])cc1 [Z-AA-pNA, benzyloxycarbonylalanyl-alanyl-] (Cbz-Ala-Ala-pNA)
- cleavage of p-NA substrate by amyloidin (increase in A405) [1]: 0

Molecule: CSCC[C@H](NC(=O)[C@H](CCC(N)=O)NC(=O)[C@@H](NC(=O)[C@H](CCC(=O)O)NC(=O)[C@H](CO)NC(C)=O)C(C)C)C(=O)N[C@@H](CC(=O)O)C(=O)N[C@@H](C)C(=O)N[C@@H](CCC(=O)O)C(=O)N[C@@H](Cc1ccccc1)C(=O)N[C@@H](CCCNC(=N)N)C(N)=O [Gln595 analog] (Ac-SEVQMDAEFR-NH2)
- site of cleavage by amyloidin [3]: all the cleavage by amyloidin was at the Met-Asp bond

Molecule: CC(=O)N[C@@H](CO)C(=O)N[C@@H](CCC(=O)O)C(=O)N[C@H](C(=O)N[C@@H](CCCCN)C(=O)N[C@@H](C)C(=O)N[C@@H](CC(=O)O)C(=O)N[C@@H](C)C(=O)N[C@@H](CCC(=O)O)C(=O)N[C@@H](Cc1ccccc1)C(=O)N[C@@H](CCCNC(=N)N)C(N)=O)C(C)C [replacement of Met596 by Ala] (Ac-SEVKADAEFR-NH2)
- site of cleavage by amyloidin [3]: loss of cleavage at this site, but cleavage shifted to the Lys595-Ala596 bond

Molecule: O=S(=O)(F)Cc1ccccc1 [PMSF, phenylmethylsulfonyl fluoride]
- % Control Activity [2]: 69%

Molecule: CSCC[C@H](NC(=O)[C@@H]1CCCN1C(=O)[C@H](C)NC(=O)[C@H](C)NC(=O)CCC(=O)O)C(=O)Nc1ccc([N+](=O)[O-])cc1 [Suc-AAPM-pNA, Suc-Ala-Ala-Pro-Met-pNA] (Suc-AAPM-pNA)
- cleavage of p-NA substrate by amyloidin (increase in A405) [1]: 0

Molecule: CC(C)C[C@H](NP(=O)(O)O[C@@H]1O[C@@H](C)[C@H](O)[C@@H](O)[C@H]1O)C(=O)N[C@@H](Cc1c[nH]c2ccccc12)C(=O)O [phosphoramidon]
- remaining activity at 100 µg/mL ([2]; assay conc. 0.1 mg/ml, 30 min pre-incubation, room temperature, read-out: % Control Activity): 79%
- inhibitory effect on amyloidin ([2]; in words): only weakly inhibitory

Molecule: CC(C)C[C@H](NC(=O)[C@@H](NC(=O)N[C@@H](Cc1ccccc1)C(=O)O)[C@@H]1CCN=C(N)N1)C(=O)N[C@H](C=O)Cc1ccccc1 [chymostatin]
- remaining activity at 25 µg/mL ([2]; read-out: % Control Activity): 77%

Molecule: CC(C)C[C@H](NC(=O)[C@H]1O[C@@H]1C(=O)O)C(=O)NCCCCN=C(N)N [E-64]
- remaining activity at 1 µg/mL ([2]; assay conc. 1 ug/ml, 30 min pre-incubation, room temperature, read-out: % Control Activity): 119%
- inhibitory effect on amyloidin ([2]; in words): no inhibitory effect

Molecule: HSEVKMDAEF
- sites of cleavage by brain protease [4]: primarily at three sites, between the Lys-Met, Met-Asp, and Asp-Ala, with some cleavage obtained at His-Ser

Molecule: aprotinin
- % Control Activity [2]: 102%
- inhibitory effect on amyloidin [2]: nor did aprotinin

Molecule: CSCC[C@H](NC(=O)[C@H](CCCCN)NC(=O)[C@@H](NC(=O)[C@H](CCC(=O)O)NC(C)=O)C(C)C)C(=O)Nc1ccc([N+](=O)[O-])cc1 [Ac-EVKM-PNA, acetylglutamyl-valyl-lysyl-methinyl-pNA] (Ac-EVKM-pNA)
- cleavage of p-NA substrate by amyloidin (increase in A405) [1]: 0

Molecule: α1-antichymotrypsin
- % Control Activity (cleavage of APP592-601) (% control activity) [5]: 121

Molecule: N=C(N)NCCC[C@H](NC(=O)OCc1ccccc1)C(=O)N[C@@H](CCCNC(=N)N)C(=O)Nc1ccc([N+](=O)[O-])cc1 [Z-RR-pNA, benzyloxycarbonyl arginylarginyl-] (Cbz-Arg-Arg-pNA)
- cleavage of p-NA substrate by amyloidin (increase in A405) [1]: 0

Molecule: COC(=O)CCC(=O)N[C@@H](C)C(=O)N[C@@H](C)C(=O)N1CCC[C@H]1C(=O)N[C@H](C(=O)Nc1ccc([N+](=O)[O-])cc1)C(C)C [MeS-AAPV-pNA, Methoxysuccinylalanyl-alanyl-prolyl-valyl-] (MeOSuc-AAPV-pNA)
- cleavage of p-NA substrate by amyloidin (increase in A405) [1]: 0

Molecule: human amyloidin protease (enzyme)
- Specific Activity (area/min/mg), DAEFR area by RP-HPLC [6]: 2080 area/min/mg
- increase in absorbance at 405 nm [7]: 0
- increase in absorbance at 405 nm [8]: 0
- increase in absorbance at 405 nm [9]: 0
- increase in absorbance at 405 nm [10]: 0
- increase in absorbance at 405 nm [11]: 0
- increase in absorbance at 405 nm [12]: 0
- increase in absorbance at 405 nm [13]: 0
- increase in absorbance at 405 nm [14]: 0
- increase in absorbance at 405 nm [15]: 0

Molecule: CC(=O)N[C@@H](C)C(=O)N[C@@H](CC(=O)O)C(=O)Nc1ccc([N+](=O)[O-])cc1 [Ac-AD-pNA, Acetylalanyl-aspartyl-] (Ac-Ala-Asp-pNA)
- cleavage of p-NA substrate by amyloidin (increase in A405) [1]: 0

Molecule: CSCC[C@@H](C=O)NC(=O)[C@H](CC(C)C)NC(=O)[C@H](CC(C)C)NC(C)=O [Calp. Inh. II] (Ac-Leu-Leu-Met-aldehyde)
- remaining activity at 50 µg/mL ([2]; assay conc. 50 ug/ml, 30 min pre-incubation, room temperature, read-out: % Control Activity): 130%
- inhibitory effect on amyloidin ([2]; in words): no inhibitory effect

Molecule: full-length protein (APP): full-length protein (APP) produced by baculovirus cells transformed with the gene encoding APP
- cleavage of full-length APP by amyloidin [16]: did not cleave

Molecule: α1-proteinase inhibitor
- % Control Activity (cleavage of APP592-601) (% control activity) [5]: 98

Molecule: N=C(N)NCCC[C@H](NC(=O)OCc1ccccc1)C(=O)N[C@@H](CCCCN)C(=O)Nc1ccc([N+](=O)[O-])cc1 [Z-RK-pNA, benzyloxycarbonylarginyl-lysyl-] (Cbz-Arg-Lys-pNA)
- cleavage of p-NA substrate by amyloidin (increase in A405) [1]: 0

B1: rat mast cell protease I (RMCP I) (protein)
chain: IIGGVESRPHSRPYMAHLEITTERGYKATCGGFLVTRQFVMTAAHCKGRETTVTLGVHDVSKTESTQQKIKVEKQIVHPNYNFYSNLHDIMLLKLQKKAKVTPAVDVIPLPQPSDFLKPGKMCRAAGWGQTGVTKPTSNTLREVKQRIMDKEACKNYFHYNYNFQVCVGSPRKIRSAYKGDSGGPLVCAGVAHGIVSYGRGDAKPPAVFTRISPYVPWINKVIKGKDLTSLSLHESESPS
- percent of Suc-Ala-Ala-Pro-Phe-pNA hydrolysing activity bound to the matrix [17]: 95% of this activity had bound to the matrix
